Laboratory results reported in US11147272B2, “Pyridone compounds and agricultural and horticultural fungicides comprising the same as active ingredients” (MITSUI CHEMICALS AGRO, INC., priority 2017, dated 2021).

Tests used:
[1] = tested on: Blumeria graminis f. sp. hordei; test: Test Example D: Powdery mildew on barley; details: Powdery mildew on barley; class of control value
Alternaia brassicicola = test: Test Example C: Alternaria sooty spot on cabbage; assay type: in vivo; details: Alternaria sooty spot on cabbage; class of control value
Source text: Seeds of a test plant (cabbage variety: Shikidori) were planted and cultivated until the cotyledons extended.
<Control Value> Control value=100{1−(n/3)}

Plasmopara viticola = test: Test Example G: Downy mildew on vine; details: Downy mildew on vine (Neomuscat); 250 ppm spray, 2.5 ml/pot; assessed 7 to 10 days after inoculation
Phytophthora infestans = test: whole plant or invertebrate; assay type: in vivo; details: Late blight on tomato; class of control value
Magnaporthe grisea = test: whole plant or invertebrate; assay type: in vivo; details: Blast on rice; class of control value
Puccinia recondita = test: Test Example E: Brown rust on wheat; assay type: in vivo; details: Brown rust on wheat; class of control value
Botrytis cinerea = test: Test Example B: Gray mold on tomato; details: Gray mold on tomato; class of control value
[2] = tested on: Colletotrichum orbiculare; test: Test Example H: Anthracnose on cucumber; details: Anthracnose on cucumber (Sagami Hanjiro); 250 ppm spray, 2.5 ml/pot; assessed 6 to 10 days after inoculation

Structure (SMILES)	Test D control value class [1]	Test C control value class (Alternaia brassicicola)	Test G control value class (Plasmopara viticola)	Test F control value class (Phytophthora infestans)	Test A control value class (Magnaporthe grisea)	Test E control value class (Puccinia recondita)	Test B control value class (Botrytis cinerea)	Test H control value class [2]
CCOc1cc(F)c(-c2c(C(C)(C)C)cc(Cl)c(=O)n2CC)c(F)c1 [compound 75]	L (50% or less control value)	H (more than 50% control value)	L (50% or less control value)	L (50% or less control value)	L (50% or less control value)	H (more than 50% control value)	H (more than 50% control value)	H (more than 50% control value)
CCn1c(-c2c(F)cc(OC)cc2F)c(C(C)(C)C)cc(Br)c1=O [compound 76]	L (50% or less control value)	H (more than 50% control value)	L (50% or less control value)	L (50% or less control value)	H (more than 50% control value)	H (more than 50% control value)	H (more than 50% control value)	H (more than 50% control value)
Cn1c(-c2c(F)cc(F)cc2F)c(C(C)(C)C)cc(Cl)c1=O [compound 77]	H (more than 50% control value)	H (more than 50% control value)	L (50% or less control value)	L (50% or less control value)	L (50% or less control value)	H (more than 50% control value)	H (more than 50% control value)	L (50% or less control value)
Cn1c(-c2c(F)cc(F)cc2F)c(C(C)(C)C)cc(Br)c1=O [compound 78]	H (more than 50% control value)	H (more than 50% control value)	L (50% or less control value)	L (50% or less control value)	H (more than 50% control value)	H (more than 50% control value)	H (more than 50% control value)	H (more than 50% control value)
COc1cc(F)c(-c2c(C(C)(C)C)cc(Cl)c(=O)n2C)c(F)c1 [compound 79]	H (more than 50% control value)	H (more than 50% control value)	L (50% or less control value)	L (50% or less control value)	H (more than 50% control value)	H (more than 50% control value)	H (more than 50% control value)	H (more than 50% control value)
CCn1c(-c2c(F)cccc2F)c(CN(C)C(C)C)cc(Cl)c1=O [compound 80]	L (50% or less control value)	L (50% or less control value)	L (50% or less control value)	H (more than 50% control value)	L (50% or less control value)	L (50% or less control value)	H (more than 50% control value)	H (more than 50% control value)
CCn1c(-c2c(F)cc(F)cc2F)c(C(OC)N(C)C(C)C)cc(Cl)c1=O (centres unmarked) [compound 81]	L (50% or less control value)	L (50% or less control value)	L (50% or less control value)	L (50% or less control value)	H (more than 50% control value)	L (50% or less control value)	H (more than 50% control value)	L (50% or less control value)
COc1cc(F)c(-c2c(C(C)(C)C)cc(Br)c(=O)n2C)c(F)c1 [compound 82]	L (50% or less control value)	H (more than 50% control value)	H (more than 50% control value)	L (50% or less control value)	L (50% or less control value)	H (more than 50% control value)	H (more than 50% control value)	H (more than 50% control value)
CCn1c(-c2c(F)cc(OCCOC)cc2F)c(C(C)(C)C)cc(Cl)c1=O [compound 83]	L (50% or less control value)	H (more than 50% control value)	H (more than 50% control value)	L (50% or less control value)	H (more than 50% control value)	H (more than 50% control value)	H (more than 50% control value)	H (more than 50% control value)
COCCOc1cc(F)c(-c2c(C(C)(C)C)cc(Cl)c(=O)n2C)c(F)c1 [compound 84]	L (50% or less control value)	H (more than 50% control value)	L (50% or less control value)	L (50% or less control value)	L (50% or less control value)	L (50% or less control value)	L (50% or less control value)	H (more than 50% control value)
COc1cc(F)c(-c2c(C(C)(C)C)cc(Cl)c(=O)n2C)c(F)c1 [compound 85]	L (50% or less control value)	H (more than 50% control value)	L (50% or less control value)	L (50% or less control value)	H (more than 50% control value)	H (more than 50% control value)	H (more than 50% control value)	H (more than 50% control value)
CCn1c(-c2c(F)cc(F)cc2F)c(CN(C)C(C)C)cc(Cl)c1=O [compound 86]	L (50% or less control value)	H (more than 50% control value)	L (50% or less control value)	L (50% or less control value)	L (50% or less control value)	L (50% or less control value)	L (50% or less control value)	L (50% or less control value)
CCn1c(-c2c(F)cc(OC)cc2F)c(C(CC(C)C)OC)cc(Cl)c1=O (centres unmarked) [compound 87]	H (more than 50% control value)	H (more than 50% control value)	L (50% or less control value)	L (50% or less control value)	L (50% or less control value)	H (more than 50% control value)	H (more than 50% control value)	H (more than 50% control value)
CCn1c(-c2c(F)cc(OC)cc2F)c(CN(C)C(C)C)cc(Cl)c1=O [compound 88]	H (more than 50% control value)	H (more than 50% control value)	L (50% or less control value)	L (50% or less control value)	L (50% or less control value)	H (more than 50% control value)	H (more than 50% control value)	L (50% or less control value)
CCn1c(-c2c(F)cc(F)cc2F)c(C(O)CC(C)C)cc(Cl)c1=O (centres unmarked) [compound 90]	H (more than 50% control value)	H (more than 50% control value)	H (more than 50% control value)	L (50% or less control value)	H (more than 50% control value)	H (more than 50% control value)	H (more than 50% control value)	H (more than 50% control value)
CCn1c(-c2c(F)cc(F)cc2F)c(CN(C)C)cc(Cl)c1=O [compound 91]	L (50% or less control value)	L (50% or less control value)	L (50% or less control value)	L (50% or less control value)	L (50% or less control value)	H (more than 50% control value)	L (50% or less control value)	H (more than 50% control value)
